Source: ChEMBL document CHEMBL3045779, “Microwave solvent-free condition synthesis and pharmacological evaluation of pyrano[3,2-c]quinolines” (2012)

Key:
Assay type in all cases: functional
Escherichia coli [1] = experiment: Antibacterial activity against Escherichia coli at 100 ug/ml after 24 hr by paper disk diffusion method; conditions: read-out: IZ
Staphylococcus aureus [2] = experiment: Antibacterial activity against Staphylococcus aureus at 100 ug/ml after 24 hr by paper disk diffusion method; conditions: read-out: IZ
Rattus norvegicus [3] = experiment: Anti-inflammatory activity inRattus norvegicus albino (rat) assessed as inhibition of carrageenan-induced paw edema at 100 mg/kg administered 1 hr prior to carrageenan-challenge measured after 3 hr by plethysmometric analysis relative to control
Rattus norvegicus [4] = experiment: Anti-inflammatory activity inRattus norvegicus albino (rat) assessed as inhibition of carrageenan-induced paw edema at 100 mg/kg administered 1 hr prior to carrageenan-challenge measured after 1 hr by plethysmometric analysis relative to control
Staphylococcus aureus [5] = experiment: Antibacterial activity against Staphylococcus aureus at 50 ug/ml after 24 hr by paper disk diffusion method; conditions: read-out: IZ
Escherichia coli [6] = experiment: Antibacterial activity against Escherichia coli at 50 ug/ml after 24 hr by paper disk diffusion method; conditions: read-out: IZ
Rattus norvegicus [7] = experiment: Anti-inflammatory activity inRattus norvegicus albino (rat) assessed as inhibition of carrageenan-induced paw edema at 100 mg/kg administered 1 hr prior to carrageenan-challenge measured after 2 hr by plethysmometric analysis relative to control

CCOC(=O)C1=C(N)Oc2c(c(O)nc3ccccc23)C1c1ccccc1 (centres undefined)
zone of inhibition at 100 µg/mL (Escherichia coli [1]): 16.2 mm
zone of inhibition at 100 µg/mL (Staphylococcus aureus [2]): 16.7 mm
inhibition in vivo at 100 mg/kg (Rattus norvegicus [3]): 75.2%
inhibition in vivo at 100 mg/kg (Rattus norvegicus [4]): 54.2%
zone of inhibition at 50 µg/mL (Staphylococcus aureus [5]): 15.6 mm
zone of inhibition at 50 µg/mL (Escherichia coli [6]): 15.2 mm
inhibition in vivo at 100 mg/kg (Rattus norvegicus [7]): 61.9%

CCOC(=O)C1=C(N)Oc2c(c(=O)[nH]c3ccc(C)cc23)C1c1ccccc1Cl (centres undefined)
zone of inhibition at 100 µg/mL (Escherichia coli [1]): 17.3 mm
zone of inhibition at 100 µg/mL (Staphylococcus aureus [2]): 17.3 mm
inhibition in vivo at 100 mg/kg (Rattus norvegicus [3]): 74.2%
inhibition in vivo at 100 mg/kg (Rattus norvegicus [4]): 58.1%
zone of inhibition at 50 µg/mL (Staphylococcus aureus [5]): 16.1 mm
zone of inhibition at 50 µg/mL (Escherichia coli [6]): 15.4 mm
inhibition in vivo at 100 mg/kg (Rattus norvegicus [7]): 68.1%

CCOC(=O)C1=C(N)Oc2c(c(=O)[nH]c3ccc(C)cc23)C1c1cccc(Cl)c1 (centres undefined)
zone of inhibition at 100 µg/mL (Escherichia coli [1]): 15.2 mm
zone of inhibition at 100 µg/mL (Staphylococcus aureus [2]): 15.7 mm
inhibition in vivo at 100 mg/kg (Rattus norvegicus [3]): 75.5%
inhibition in vivo at 100 mg/kg (Rattus norvegicus [4]): 56.4%
zone of inhibition at 50 µg/mL (Staphylococcus aureus [5]): 14.6 mm
zone of inhibition at 50 µg/mL (Escherichia coli [6]): 14.1 mm
inhibition in vivo at 100 mg/kg (Rattus norvegicus [7]): 69.7%

CCOC(=O)C1=C(N)Oc2c(c(=O)[nH]c3ccc(C)cc23)C1c1ccc(Cl)cc1 (centres undefined)
zone of inhibition at 100 µg/mL (Staphylococcus aureus [2]): 18.5 mm
inhibition in vivo at 100 mg/kg (Rattus norvegicus [3]): 77.7%
inhibition in vivo at 100 mg/kg (Rattus norvegicus [4]): 59.4%
zone of inhibition at 50 µg/mL (Staphylococcus aureus [5]): 15.8 mm
zone of inhibition at 50 µg/mL (Escherichia coli [6]): 15.4 mm
inhibition in vivo at 100 mg/kg (Rattus norvegicus [7]): 70.3%

CCOC(=O)C1=C(N)Oc2c(c(=O)[nH]c3ccc(C)cc23)C1c1ccc(O)cc1 (centres undefined)
zone of inhibition at 100 µg/mL (Escherichia coli [1]): 18.2 mm
zone of inhibition at 100 µg/mL (Staphylococcus aureus [2]): 19.7 mm
inhibition in vivo at 100 mg/kg (Rattus norvegicus [3]): 69.2%
inhibition in vivo at 100 mg/kg (Rattus norvegicus [4]): 57.1%
zone of inhibition at 50 µg/mL (Staphylococcus aureus [5]): 17.6 mm
zone of inhibition at 50 µg/mL (Escherichia coli [6]): 16.2 mm
inhibition in vivo at 100 mg/kg (Rattus norvegicus [7]): 70.4%

CCOC(=O)C1=C(N)Oc2c(c(=O)[nH]c3ccc(C)cc23)C1c1cccc([N+](=O)[O-])c1 (centres undefined)
zone of inhibition at 100 µg/mL (Escherichia coli [1]): 17.4 mm
zone of inhibition at 100 µg/mL (Staphylococcus aureus [2]): 19.2 mm
inhibition in vivo at 100 mg/kg (Rattus norvegicus [3]): 75.5%
inhibition in vivo at 100 mg/kg (Rattus norvegicus [4]): 54.3%
zone of inhibition at 50 µg/mL (Staphylococcus aureus [5]): 18.1 mm
zone of inhibition at 50 µg/mL (Escherichia coli [6]): 16.5 mm
inhibition in vivo at 100 mg/kg (Rattus norvegicus [7]): 70.3%

CCOC(=O)C1=C(N)Oc2c(c(=O)[nH]c3ccc(C)cc23)C1c1ccccc1 (centres undefined)
zone of inhibition at 100 µg/mL (Escherichia coli [1]): 16.2 mm
inhibition in vivo at 100 mg/kg (Rattus norvegicus [3]): 75.2%
inhibition in vivo at 100 mg/kg (Rattus norvegicus [4]): 56.2%
zone of inhibition at 50 µg/mL (Staphylococcus aureus [5]): 14.7 mm
zone of inhibition at 50 µg/mL (Escherichia coli [6]): 15.7 mm
inhibition in vivo at 100 mg/kg (Rattus norvegicus [7]): 71.1%

CCOC(=O)C1=C(N)Oc2c(c(=O)[nH]c3ccccc23)C1c1ccccc1Cl (centres undefined)
zone of inhibition at 100 µg/mL (Escherichia coli [1]): 15 mm
zone of inhibition at 100 µg/mL (Staphylococcus aureus [2]): 16.3 mm
inhibition in vivo at 100 mg/kg (Rattus norvegicus [3]): 80.6%
inhibition in vivo at 100 mg/kg (Rattus norvegicus [4]): 55.6%
zone of inhibition at 50 µg/mL (Staphylococcus aureus [5]): 15.2 mm
zone of inhibition at 50 µg/mL (Escherichia coli [6]): 13.7 mm
inhibition in vivo at 100 mg/kg (Rattus norvegicus [7]): 69.4%

CCOC(=O)C1=C(N)Oc2c(c(=O)[nH]c3ccccc23)C1c1cccc(Cl)c1 (centres undefined)
zone of inhibition at 100 µg/mL (Staphylococcus aureus [2]): 15.7 mm
inhibition in vivo at 100 mg/kg (Rattus norvegicus [3]): 75.9%
inhibition in vivo at 100 mg/kg (Rattus norvegicus [4]): 57.6%
zone of inhibition at 50 µg/mL (Staphylococcus aureus [5]): 15.4 mm
zone of inhibition at 50 µg/mL (Escherichia coli [6]): 14.1 mm
inhibition in vivo at 100 mg/kg (Rattus norvegicus [7]): 68.5%

CCOC(=O)C1=C(N)Oc2c(c(=O)[nH]c3ccccc23)C1c1ccc(Cl)cc1 (centres undefined)
zone of inhibition at 100 µg/mL (Escherichia coli [1]): 16.2 mm
zone of inhibition at 100 µg/mL (Staphylococcus aureus [2]): 16.7 mm
inhibition in vivo at 100 mg/kg (Rattus norvegicus [3]): 80.7%
inhibition in vivo at 100 mg/kg (Rattus norvegicus [4]): 56.2%
zone of inhibition at 50 µg/mL (Staphylococcus aureus [5]): 16.3 mm
zone of inhibition at 50 µg/mL (Escherichia coli [6]): 15.2 mm
inhibition in vivo at 100 mg/kg (Rattus norvegicus [7]): 66.1%

CCOC(=O)C1=C(N)Oc2c(c(=O)[nH]c3ccccc23)C1c1ccc(O)cc1 (centres undefined)
zone of inhibition at 100 µg/mL (Escherichia coli [1]): 17 mm
zone of inhibition at 100 µg/mL (Staphylococcus aureus [2]): 17.6 mm
inhibition in vivo at 100 mg/kg (Rattus norvegicus [3]): 75.2%
inhibition in vivo at 100 mg/kg (Rattus norvegicus [4]): 58.4%
zone of inhibition at 50 µg/mL (Staphylococcus aureus [5]): 16.9 mm
zone of inhibition at 50 µg/mL (Escherichia coli [6]): 15.7 mm
inhibition in vivo at 100 mg/kg (Rattus norvegicus [7]): 63.4%

CCOC(=O)C1=C(N)Oc2c(c(=O)[nH]c3ccccc23)C1c1cccc([N+](=O)[O-])c1 (centres undefined)
zone of inhibition at 100 µg/mL (Escherichia coli [1]): 17 mm
inhibition in vivo at 100 mg/kg (Rattus norvegicus [3]): 79.3%
inhibition in vivo at 100 mg/kg (Rattus norvegicus [4]): 53.5%
zone of inhibition at 50 µg/mL (Staphylococcus aureus [5]): 17.3 mm
zone of inhibition at 50 µg/mL (Escherichia coli [6]): 16.1 mm
inhibition in vivo at 100 mg/kg (Rattus norvegicus [7]): 69%

CC1COc2c(N3CCN(C)CC3)c(F)cc3c(=O)c(C(=O)O)cn1c23 (centres undefined) [OFLOXACIN]
zone of inhibition at 100 µg/mL (Staphylococcus aureus [2]): 24.3 mm
zone of inhibition at 50 µg/mL (Staphylococcus aureus [5]): 21.2 mm

CN[C@@H]1[C@H](O[C@H]2[C@H](O[C@H]3[C@H](O)[C@@H](O)[C@H](N=C(N)N)[C@@H](O)[C@@H]3N=C(N)N)O[C@@H](C)[C@]2(O)C=O)O[C@@H](CO)[C@H](O)[C@H]1O [STREPTOMYCIN]
zone of inhibition at 100 µg/mL (Escherichia coli [1]): 25.2 mm
zone of inhibition at 50 µg/mL (Escherichia coli [6]): 20.1 mm
